# Test results: the supplement of paper PMC10307832
# What was measured:
# Test in all cases: relative viability (nuclei count vs DMSO), 5 days (fraction); higher = more cells survive
# Lestaurtinib + Alpelisib = compound: C[C@]12O[C@H](C[C@]1(O)CO)n1c3ccccc3c3c4c(c5c6ccccc6n2c5c31)CNC4=O [Lestaurtinib] + Cc1nc(NC(=O)N2CCC[C@H]2C(N)=O)sc1-c1ccnc(C(C)(C)C(F)(F)F)c1 [Alpelisib] (partner 2 µM)
# Procedure, shortened: (§1)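 Cells from lung cancer lines were seeded into 1536-well plates and, one day later, dosed by pin tool. Treatments were either a single drug or a fixed dose of an anchor drug with five library-drug doses (not always all listed) in √10 steps. After 5 days, nuclei were stained in a one-step fixation (final 0.05% Triton X-100, 1% formaldehyde, 1 ug/ml Hoechst) and counted on 4× images, and relative viability is the treated-to-vehicle nuclei ratio, as the median of duplicate plates.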
# [1] = compound: C[C@]12O[C@H](C[C@]1(O)CO)n1c3ccccc3c3c4c(c5c6ccccc6n2c5c31)CNC4=O [Lestaurtinib] + C[C@@H](Oc1cc(-c2cnn(C3CCNCC3)c2)cnc1N)c1c(Cl)ccc(F)c1Cl [Crizotinib] (partner 1 µM)
# Procedure, shortened: as §1
# Lestaurtinib + Foretinib = compound: C[C@]12O[C@H](C[C@]1(O)CO)n1c3ccccc3c3c4c(c5c6ccccc6n2c5c31)CNC4=O [Lestaurtinib] + COc1cc2c(Oc3ccc(NC(=O)C4(C(=O)Nc5ccc(F)cc5)CC4)cc3F)ccnc2cc1OCCCN1CCOCC1 [Foretinib] (partner 0.25 µM)
# Procedure, shortened: as §1
# Lestaurtinib + OSI-027 = compound: C[C@]12O[C@H](C[C@]1(O)CO)n1c3ccccc3c3c4c(c5c6ccccc6n2c5c31)CNC4=O [Lestaurtinib] + COc1cccc2cc(-c3nc([C@H]4CC[C@H](C(=O)O)CC4)n4ncnc(N)c34)[nH]c12 [OSI-027] (partner 0.5 µM)
# Procedure, shortened: as §1
Cell Line,relative viability (Lestaurtinib + Alpelisib; first compound 0.005 µM),relative viability (Lestaurtinib + Alpelisib; first compound 0.01581 µM),relative viability (Lestaurtinib + Alpelisib; first compound 0.05 µM),relative viability (Lestaurtinib + Alpelisib; first compound 0.1581 µM),relative viability (Lestaurtinib + Alpelisib; first compound 0.5 µM),relative viability ([1]; first compound 0.005 µM),relative viability ([1]; first compound 0.01581 µM),relative viability ([1]; first compound 0.05 µM),relative viability ([1]; first compound 0.1581 µM),relative viability ([1]; first compound 0.5 µM),relative viability (Lestaurtinib + Foretinib; first compound 0.005 µM),relative viability (Lestaurtinib + Foretinib; first compound 0.01581 µM),relative viability (Lestaurtinib + Foretinib; first compound 0.05 µM),relative viability (Lestaurtinib + Foretinib; first compound 0.1581 µM),relative viability (Lestaurtinib + Foretinib; first compound 0.5 µM),relative viability (Lestaurtinib + OSI-027; first compound 0.005 µM),relative viability (Lestaurtinib + OSI-027; first compound 0.01581 µM),relative viability (Lestaurtinib + OSI-027; first compound 0.05 µM),relative viability (Lestaurtinib + OSI-027; first compound 0.1581 µM),relative viability (Lestaurtinib + OSI-027; first compound 0.5 µM)
NCI-H2009,1.27,1.12,0.971,1.05,0.673,1.02,1.09,1,0.637,0.454,1.24,1.3,1.17,1.09,0.751,0.578,0.449,0.365,0.441,0.24
NCI-H2023,0.674,0.616,0.536,0.488,0.384,0.635,0.619,0.723,0.654,0.113,1.02,0.758,0.843,1.01,0.164,0.375,0.407,0.341,0.296,0.104
NCI-H2085,1.05,1.11,1.06,1.01,0.843,0.904,0.856,0.748,0.884,0.692,1.01,0.885,0.801,1.05,0.826,0.707,0.822,0.801,0.658,0.521
NCI-H2087,1.15,1.08,0.83,0.783,0.325,1.07,0.789,1.04,0.746,0.253,1.13,1.31,0.848,0.703,0.266,0.627,0.634,0.531,0.408,0.338
NCI-H2126,0.785,0.746,0.608,0.681,0.478,1.06,1.1,0.835,0.973,0.682,1.19,1.31,1.1,1.1,0.926,0.6,0.844,0.665,0.658,0.539
NCI-H2170,0.698,0.707,0.592,0.699,0.404,1.05,1.06,0.68,0.924,0.292,0.969,1.02,0.907,0.962,0.358,0.726,0.523,0.45,0.561,0.471
NCI-H2228,0.806,0.648,0.582,0.32,0.205,0.512,0.442,0.415,0.21,0.255,0.885,0.896,0.523,0.379,0.254,0.528,0.627,0.349,0.294,0.104
NCI-H2347,1.1,1.22,0.91,0.573,0.606,0.715,0.854,0.71,0.585,0.545,1.18,1.38,0.865,0.98,0.598,0.402,0.423,0.409,0.33,0.367
